What all share (type): in vivo, patient
In data set [1] the test system is normal epidermis and hair follicles. The following applies: Normal skin exposed to the same schedule and doses of cyclopamine as the BCC's; undifferentiated basal layer cells preserved. An excerpt:
(§1) These regions are seen to contain residual BCC`s displaying large cysts in the tumor center and smaller cystic structures of various sizes located among the residual BCC cells towards the periphery. • Fig 2D and Fig 2E show 1000X magnified appearances from the interior and palisading peripheral regions of these residual BCC's and show the presence of massive apoptotic activity among the residual BCC cells regardless of the tumor region.
4B and 4C Higher power views from different areas of cyclopamine-treated epidermis showing Ber-Ep4 labelling of the basal cells. […] Original magnification is 400X for 4A and 1000X for 4B, 4C, 4D, immunohistochemical detection procedure is the same as in Fig 3A, 3B; labelling is indicated by brown coloring.

Data set [2] has as its system BCC cells. The experiment in a line: Immunohistochemical Ber-Ep4 labelling (differentiation marker) of treated BCC's. Particulars: topical cream 18 mM cyclopamine, four times per day, excised on fifth and sixth days, means ± standard deviations, p < 0.001 vs placebo.
Excerpt: as §1
The loss of translucency in the cyclopamine-treated BCC's raises the intriguing possibility of differentiation of BCC's under the influence of cyclopamine. This possibility, which can be tested by immunohistochemical analyses of the BCC's, is found to be the case in this invention. In normal epidermis, differentiation of basal tayer cells to the upper layer cells is accompanied by a loss of labelling with the monoclonal antibody Ber-Ep4. Ber-Ep4 labels also the BCC cells and is a known marker for these neoplasms.
(§2) Ber-Ep4 is a known differentiation marker that stains the BCC cells as well as the undifferentiated cells of the normal epidermis basal layer and of hair follicles but not the differentiated upper layer cells of normal epidermis. […] 3D and 3E : Decreased expression of p53 as detected by the monoclonal antibody DO-7 in cyclopamine-treated BCC's (3D) in comparison to the placebo-treated BCC's (3E). Expression of p53 is known to decrease upon differentiation of the epidermal basal cells and upon differentiation of cultured keratinocytes. It is also well known that the amount of p53, detectable by DO-7, increases in cells when they are exposed to DNA-damaging agents. […] Original magnifications are 400X for 3A, 3B, 3D, 3E, 1000X for 3C and 100X for 3F, 3G. All immunohistochemical labellings are with peroxidase-conjugated streptavidin binding to biotinylated secondary antibody; labelling is Indicated by the brown-colored staging. Sections shown in 3F and 3G are stained with Periodic Acid-Schiff and Alcian blue.

The test system of a further data set is BCC's. The data set can be described thus: Retraction of treated BCC's from stroma (arrest of proliferation), Periodic Acid-Schiff and Alcian blue sections. The following applies: Cyclopamine-treated but not placebo-treated BCC's; associated with arrest of proliferation; topical cream 18 mM cyclopamine.
Excerpt: as §1
Arrest of the proliferation of BCC's is known to be associated with their retraction from stroma. Although retraction from stroma can also be caused artefactually by improper fixation and processing of the tissues, adherence to published technical details ensures avoidance of such artefacts.
(§3) Ber-Ep4 is a known differentiation marker that stains the BCC cells as well as the undifferentiated cells of the normal epidermis basal layer and of hair follicles but not the differentiated upper layer cells of normal epidermis. […] 3D and 3E : Decreased expression of p53 as detected by the monoclonal antibody DO-7 in cyclopamine-treated BCC's (3D) in comparison to the placebo-treated BCC's (3E). Expression of p53 is known to decrease upon differentiation of the epidermal basal cells and upon differentiation of cultured keratinocytes. It is also well known that the amount of p53, detectable by DO-7, increases in cells when they are exposed to DNA-damaging agents. […]

The subject of data set [3] is BCC cells. The experiment in a line: Apoptosis by morphological criteria on hematoxylene-eosine stained sections of excised treated BCC's. Particulars: topical cream 18 mM cyclopamine, 10 ± 2 µl four times per day, excised on fifth and sixth days, means ± standard deviations, at least 16 high-power (1000 X) fields, p < 0.001 vs placebo.
Excerpt: as §1
Cells undergoing apoptosis are known to be removed by macrophages and by nearby cells in normal tissues and the quantitation of apoptotic activity by morphological criteria on hematoxylene-eosine stained sections is known to provide an underestimate.
Fig 2A, 2B, 2C, 2D, 2E, 2F : Microscopic appearences of the cyclopamine- and placebo-treated BCC's, showing the cyclopamine-induced massive apoptotic death and removal of the tumor cells and the disappearence of tumor nodules to leave behind cystic spaces with no tumor cells. Skin areas corresponding to the pre-treatment positions of the BCC's were excised surgically on the fifth and sixth days of cyclopamine exposure with a margin of normal tissue and subjected to conventional fixation, sectioning and hematoxylene-eosine staining for microscopic analyses. 2A : Large cyst in the dermis corresponding to the position of a disappeared tumor nodule showing no residual tumor cells. […]

The subject of data set [4] is basal cell carcinomas (BCC's). The experiment in a line: Topical cyclopamine cream on basal cell carcinomas: clinical regression. Particulars: Two BCC's (nasolabial fold, forehead); topical cream 18 mM cyclopamine, 10 ± 2 µl four times per day; visual disappearance of several tumor areas within less than a week, loss of translucency.
Excerpt: as §1
1C : BCC, located on forehead, prior to tretment.

Data set [5] concerns BCC cells. The experiment in a line: Ulex Europaeus lectin type 1 labelling (differentiation marker) of treated BCC's. Particulars: Residual cells of cyclopamine-treated BCC's; lectin normally does not label BCC's; topical cream 18 mM cyclopamine.
Excerpt: as §1
as §2, with “Sections shown in 3F and 3G are stained with Periodic Acid-Schiff and Alcian blue.” left out

The next data set concerns p53. The data set can be described thus: Immunohistochemical DO-7 labelling (p53 expression) of treated BCC's. The following applies: topical cream 18 mM cyclopamine; for % Of Cells Labelled With DO-7: four times per day, excised on fifth and sixth days, means ± standard deviations, p < 0.001 vs placebo.
Excerpt: as §1
The p53 is a master regulator of the cellular response to DNA-damage. Amount of this protein is known to increase in the cell nucleus following exposure of cells to genotoxic agents. When the DNA-damage is increased beyond a threshold, p53 serves for the apoptotic death of cells. Radiation therapy of cancer and the genotoxic cancer chemotherapeutics that are currently common, act largely by this mechanism, i.e. by causation of apoptosis secondary to the damaging of DNA. The monoclonal antibody DO-7 can bind both normal and missense mutant (i.e., nonfunctional) forms of p53 and is known to be capable of detecting the increase of p53 in the cells following exposure to DNA-damaging agents.
Since expression of p53 is known to decrease in epidermal cells upon differentiation, the decreased DO-7 labelling of the cyclopamine-treated BCC's is likely to be secondary to the cyclopamine-induced differentiation of the BCC cells.
as §3

The mark [6] stands for this setting: Non-palisading (interior) cells of the BCC's.
The mark [7] stands for this setting: Peripheral palisading cells of the BCC's.

As to `CC1=C2C[C@H]3[C@@H](CC=C4C[C@@H](O)CC[C@@]43C)[C@@H]2CC[C@]12O[C@@H]1C[C@H](C)CN[C@H]1[C@H]2C` [Cyclopamine], the “pattern of labelling with Ber-Ep4 of cyclopamine-treated normal epidermis and hair follicle” value in data set [1] is recorded as “normal pattern of labelling”. The “% Of Cells Labelled With Ber-Ep4” value in the data set on BCC cells [2] (setting [6]) is 0 ± 0%; with BCC cells [2] (Non-palisading (interior) cells of the BCC's, listed as cyclopamine), “none”; in the data set on BCC cells [2] (setting [7]), 0 ± 0%; with BCC cells [2] (Peripheral palisading cells of the BCC's, listed as cyclopamine), “none”. Also, the “retraction of BCC's from stroma” value with BCC's is reported as “consistently retracted from stroma”. Besides, the “% Of Cells Showing ≥ 2 Morphological Signs Of Apoptosis On H&E Stained Tissue Sections” value in the data set with BCC cells [3] (setting [6]) turned out to be 18 ± 11%; with BCC cells [3] (setting [7]) it was 20 ± 8%. Further, the “clinical regressions of the BCC's” value in data set [4] is “rapid clinical regressions”. For the same compound, in the data set with BCC cells [5], the “labelling of the residual cells with Ulex Europaeus lectin type 1” value is “heterogenous labelling”. For the same compound, the “DO-7 labelling intensity and the frequency of labelled cells” value in the data set on p53 (Cyclopamine-treated BCC's in comparison to placebo-treated BCC's) is “markedly decreased”. Further, the “% Of Cells Labelled With DO-7” value is 5 ± 3% in the data set on p53 (setting [6]) and 16 ± 11% in the data set with p53 (setting [7]).

These data come from patent EP2216022A1, “USE OF C[…] THE TREATMENT OF BASAL CELL CARCINOMA AND OTHER TUMORS” (Tas, Sinan, priority 2001, dated 2002).
